Results reported in ChEMBL document CHEMBL1201862, “PubChem BioAssay data set” (2004).
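Dose response: 5 concentrations. Exposure: 48 h. Format: 96-well plates. Endpoint: linear interpolation; highest concentration if not reached. Abbreviation: GI50, concentration required for 50% inhibition of growth.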 The source made the active and inactive calls. Rule as the data show it: active = GI50 up to about 1.1 µM and inactive = higher.

How the values were obtained:
Experiment in all cases: NCI tumour cell line growth inhibition, 48 h
786-0 = system: 786-0
A549 = system: A549
ACHN = system: ACHN
COLO 205 = system: COLO 205
HCC 2998 = system: HCC 2998
HCT-116 = system: HCT-116
HOP-62 = system: HOP-62
HOP-92 = system: HOP-92
MDA-MB-231 = system: MDA-MB-231
MOLT-4 = system: MOLT-4
NCI-H23 = system: NCI-H23
NCI-H460 = system: NCI-H460
OVCAR-8 = system: OVCAR-8
PC-3 = system: PC-3
SNB-19 = system: SNB-19
SNB-75 = system: SNB-75
T47D = system: T47D
TK-10 = system: TK-10
U-251 = system: U-251
UACC-257 = system: UACC-257

SMILES | GI50 (786-0) | GI50 (A549) | GI50 (ACHN) | GI50 (COLO 205) | GI50 (HCC 2998) | GI50 (HCT-116) | GI50 (HOP-62) | GI50 (HOP-92) | GI50 (MDA-MB-231) | GI50 (MOLT-4) | GI50 (NCI-H23) | GI50 (NCI-H460) | GI50 (OVCAR-8) | GI50 (PC-3) | GI50 (SNB-19) | GI50 (SNB-75) | GI50 (T47D) | GI50 (TK-10) | GI50 (U-251) | GI50 (UACC-257)
C/C(=N\NC(=S)N1CCCCC1)c1nc2cccnc2[nH]1 | 18 µM (inactive) | 6.7 µM (inactive) | 3.95 µM (inactive) | 4.51 µM (inactive) | 20.2 µM (inactive) | 4.19 µM (inactive) | 9.62 µM (inactive) | 7.48 µM (inactive) | 3.81 µM (inactive) | 3.41 µM (inactive) | 13.6 µM (inactive) | 4.03 µM (inactive) | 4.19 µM (inactive) | 5.3 µM (inactive) | 15.7 µM (inactive) | 38.4 µM (inactive) | 5.08 µM (inactive) | 21.3 µM (inactive) | 9.46 µM (inactive) | 8 µM (inactive)
O=C1CC(=O)NC(NN2C(=O)/C(=C/c3ccc(Cl)cc3)N=C2c2ccccc2)=N1 | 17 µM (inactive) | 14.6 µM (inactive) | 17.4 µM (inactive) | 16.8 µM (inactive) | 11.7 µM (inactive) | 15.8 µM (inactive) | 15.5 µM (inactive) | 12.4 µM (inactive) | 17.9 µM (inactive) | 4.73 µM (inactive) | 16 µM (inactive) | 9.53 µM (inactive) | 14.5 µM (inactive) | 14 µM (inactive) | – | 29.1 µM (inactive) | 28.6 µM (inactive) | 16.5 µM (inactive) | 15.6 µM (inactive) | 17.8 µM (inactive)
C=CCNC(=O)NC(=O)CSC1=NC(=O)C2(NN1)c1ccccc1-c1ccccc12 | > 10 µM (inactive) | > 10 µM (inactive) | > 10 µM (inactive) | > 10 µM (inactive) | > 10 µM (inactive) | > 10 µM (inactive) | > 10 µM (inactive) | > 10 µM (inactive) | > 10 µM (inactive) | > 10 µM (inactive) | > 10 µM (inactive) | > 10 µM (inactive) | > 10 µM (inactive) | > 10 µM (inactive) | > 10 µM (inactive) | > 10 µM (inactive) | > 10 µM (inactive) | > 10 µM (inactive) | – | > 10 µM (inactive)
COc1ccc(C2=C(N)c3ncccc3C2=O)cc1 | > 100 µM (inactive) | – | > 10 µM (inactive) | 72.6 µM (inactive) | > 100 µM (inactive) | > 100 µM (inactive) | > 100 µM (inactive) | > 10 µM (inactive) | > 100 µM (inactive) | > 100 µM (inactive) | > 100 µM (inactive) | > 100 µM (inactive) | > 100 µM (inactive) | > 100 µM (inactive) | > 100 µM (inactive) | > 100 µM (inactive) | > 100 µM (inactive) | > 10 µM (inactive) | > 100 µM (inactive) | > 10 µM (inactive)
Nc1ccc(-c2nc3cc(F)ccc3s2)cc1CO | 30.9 µM (inactive) | > 69 µM (inactive) | 25.3 µM (inactive) | > 100 µM (inactive) | 0.313 µM (active) | 53.6 µM (inactive) | 17.5 µM (inactive) | 17.3 µM (inactive) | 22.9 µM (inactive) | > 100 µM (inactive) | 0.436 µM (active) | 3.04 µM (inactive) | 28.6 µM (inactive) | 29.8 µM (inactive) | 27.1 µM (inactive) | 19.2 µM (inactive) | 0.0116 µM (active) | – | 16.4 µM (inactive) | > 69.3 µM (inactive)
Cc1c(-c2ccccc2)c(C#N)c2nnn(-c3ccc(Cl)cc3)c(=O)n12 | 18.3 µM (inactive) | 21.5 µM (inactive) | 4.26 µM (inactive) | 11 µM (inactive) | 10.6 µM (inactive) | 12.8 µM (inactive) | 7.14 µM (inactive) | > 100 µM (inactive) | 36.3 µM (inactive) | – | 37 µM (inactive) | 4.83 µM (inactive) | 25.3 µM (inactive) | 22.2 µM (inactive) | > 100 µM (inactive) | 30.9 µM (inactive) | 6.14 µM (inactive) | 77.1 µM (inactive) | 13.8 µM (inactive) | 35.8 µM (inactive)
CC1=C[C@@H](C)C[C@]2(C)CC[C@H](O2)[C@]23CC[C@](C)(C[C@H](O2)[C@@H]2O[C@@](C)(CC2=O)[C@@H](O)[C@H]2CC[C@@]4(CCC[C@@H](O4)[C@H](C)C(=O)O[C@H]4C[C@H]([C@]5(O)OCC[C@H](C)[C@@H]5O)O[C@H]4C=C1)O2)O3 | 0.0027 µM (active) | 0.0035 µM (active) | 0.00473 µM (active) | 0.00127 µM (active) | 0.075 µM (active) | 0.00826 µM (active) | 0.0015 µM (active) | 0.00159 µM (active) | 0.00528 µM (active) | – | 0.0118 µM (active) | 0.00429 µM (active) | – | 0.00229 µM (active) | 0.0244 µM (active) | < 0.001 µM (active) | 0.0632 µM (active) | 0.00545 µM (active) | 0.0146 µM (active) | 0.0148 µM (active)
COC(=O)C1=C(C)NC(=O)N2[C@@H](CCOCc3ccccc3)CC[C@@H]12 | > 50 µM (inactive) | > 50 µM (inactive) | > 50 µM (inactive) | > 50 µM (inactive) | > 50 µM (inactive) | – | > 50 µM (inactive) | > 50 µM (inactive) | > 50 µM (inactive) | 47.9 µM (inactive) | > 50 µM (inactive) | > 50 µM (inactive) | > 50 µM (inactive) | > 50 µM (inactive) | > 50 µM (inactive) | 25 µM (inactive) | 12.4 µM (inactive) | > 50 µM (inactive) | > 50 µM (inactive) | > 50 µM (inactive)
Cc1cccc(-c2nc(-c3cnccn3)n(Cc3ccccc3)n2)c1 | 52.7 µM (inactive) | > 100 µM (inactive) | – | > 100 µM (inactive) | > 100 µM (inactive) | > 100 µM (inactive) | 35.1 µM (inactive) | 34 µM (inactive) | > 100 µM (inactive) | > 100 µM (inactive) | > 100 µM (inactive) | > 100 µM (inactive) | 99.1 µM (inactive) | > 100 µM (inactive) | 95.1 µM (inactive) | < 0.01 µM (active) | 90.6 µM (inactive) | – | > 100 µM (inactive) | > 100 µM (inactive)
CC(=O)Nc1ccc(COC(O)CN2CCCCC2)cc1[N+](=O)[O-] (centres undefined) | > 100 µM (inactive) | > 100 µM (inactive) | > 100 µM (inactive) | > 100 µM (inactive) | > 100 µM (inactive) | > 100 µM (inactive) | – | > 100 µM (inactive) | > 100 µM (inactive) | > 100 µM (inactive) | > 100 µM (inactive) | > 100 µM (inactive) | > 100 µM (inactive) | > 100 µM (inactive) | > 100 µM (inactive) | > 100 µM (inactive) | > 100 µM (inactive) | > 100 µM (inactive) | > 100 µM (inactive) | > 100 µM (inactive)
